Test results taken from patent publication US20160153002A1, “METHOD FOR CELL MEMBRANE PERMEATION FOR COMPOUND” (HitGen LTD., priority 2013, published 2016).
{NH2C12} = amino-(CH2)12 linker attached through a phosphate; {FITC} = fluorescein (FITC) label

test system: HepG2 cells; experiment: Transmembrane transfer of FITC-tagged single-stranded or double-stranded DNA/RNA with X-tremeGENEsiRNA reagent, laser confocal microscopy; format: cell-based; conditions: 4 nmol, 6 h, laser confocal microscope, FIG. 5
Method: 24 h before transfer, the HepG2 cells in the phase of logarithmic growth were digested with trypsin; a culture medium containing 10% serum was used for adjusting the cell density to 0.5×10^6 cells/mL; and the cells were inoculated again in a cell culture dish of 15 cm and cultured in a culture incubator containing 5% CO2 at 37° C. The cells may be used for experiments when the cell density reaches 60% to 70% 24 h later.
4 nmol of synthesized single-stranded or double-stranded DNA/RNA fragments in different sequences was added to a sterile centrifuge tube (tube A) of 15 mL, respectively, and uniformly mixed with Opti-MEM in a corresponding volume, with a total volume of 2 mL; the X-tremeGENEsiRNA reagent was shaken gently, and 160 μL of X-tremeGENEsiRNA reagent was mixed with 1.84 mL of Opti-MEM in another tube (tube B); and the solution in the tube A was mixed with the solution in the tube B, the mixture was slightly triturated by a pipette and incubated for 20 min at room temperature.
6 mL of RPMI-1640 serum-free culture medium was added to the mixture and mixed uniformly; the primary culture medium in the HepG2 cell culture dish was discarded, and slightly triturated with RPMI-1640 serum-free culture medium once; and then, the mixture was moved into the HepG2-PT cell culture dish, and cultured in a culture incubator containing 5% CO2 at 37° C. 6 h later, the positioning of the DNA/RNA in the cells was observed by a laser confocal microscope.

Row | Substance | positioning of the DNA/RNA in the cells (transfer into cells)
1 | 5′-NH2—(CH2)12—PO4-A3-3′-FITC [polyA of 38 bp] | transferred into cells by X-tremesiRNA, with most of them into the cytoplasm and a few of them into the cell nucleus
2 | 5′-NH2—(CH2)12—PO4-A5-3′-FITC [polyA of 5 bp] | transferred into cells by X-tremesiRNA, with most of them into the cytoplasm and a few of them into the cell nucleus
3 | 5′-NH2—(CH2)12—PO4-A19-3′-FITC [polyA of 19 bp] | transferred into cells by X-tremesiRNA, with most of them into the cytoplasm and a few of them into the cell nucleus
4 | 5′-NH2—(CH2)12—PO4-TGGGCTGGCCAAACTGCTG-3′-FITC (DNA, 5' {NH2C12}, 3' {FITC}, backbone and methylation of C not given here) | transferred into cells by X-tremesiRNA, with most of them into the cytoplasm and a few of them into the cell nucleus
5 | double-stranded random sequence fragments of 19 bp: duplex of 5′-NH2-(CH2)12-PO4-TGGGCTGGCCAAACTGCTG-3′-FITC with 3′-ACCCGACCGGTTTGACGAC-5′ | transferred into cells by X-tremesiRNA, with most of them into the cytoplasm and a few of them into the cell nucleus
